Data from patent US20100285476A1, “METHODS OF IDENTIFYING HISTONE DEACETYLASE INHIBITORS USEFUL FOR NEUROLOGICAL DISORDERS” (priority 2007, published 2010).

Key:
HDAC3 = HDAC3 (Homo sapiens, UniProt O15379); assay: HDAC enzyme inhibition assay, purified HDAC3; assay type: biochemical; conditions: for Relative Inhibitory Activity HDAC 1/3: IC50 for HDAC1 divided by IC50 for HDAC3; for Relative Inhibitory Activity HDAC 2/3: IC50 for HDAC2 divided by IC50 for HDAC3; for Relative Inhibitory Activity HDAC 5/3: IC50 for HDAC5 divided by IC50 for HDAC3; for IC50: purified HDAC3
Chain of HDAC3 (O15379 whole entry): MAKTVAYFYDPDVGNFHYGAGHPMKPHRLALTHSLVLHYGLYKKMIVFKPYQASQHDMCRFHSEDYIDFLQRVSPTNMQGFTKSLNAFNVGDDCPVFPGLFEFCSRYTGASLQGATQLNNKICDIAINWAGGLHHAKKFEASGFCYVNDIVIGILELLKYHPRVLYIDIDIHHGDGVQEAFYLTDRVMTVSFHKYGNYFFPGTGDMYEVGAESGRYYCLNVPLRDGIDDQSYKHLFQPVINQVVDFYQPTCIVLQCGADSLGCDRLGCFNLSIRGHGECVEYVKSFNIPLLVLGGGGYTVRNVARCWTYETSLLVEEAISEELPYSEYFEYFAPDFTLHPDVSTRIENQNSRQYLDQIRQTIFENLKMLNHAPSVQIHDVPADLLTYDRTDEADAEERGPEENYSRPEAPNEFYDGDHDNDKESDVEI
Chain of HDAC3 (Q9Y618 395-489 partner limits assumed): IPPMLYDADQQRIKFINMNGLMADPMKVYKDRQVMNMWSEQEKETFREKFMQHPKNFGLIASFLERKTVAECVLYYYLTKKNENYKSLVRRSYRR

HDAC1 = HDAC1 (Homo sapiens, UniProt Q13547); assay: HDAC enzyme inhibition assay, purified HDAC1; assay type: biochemical
Chain of HDAC1 (Q13547 whole entry): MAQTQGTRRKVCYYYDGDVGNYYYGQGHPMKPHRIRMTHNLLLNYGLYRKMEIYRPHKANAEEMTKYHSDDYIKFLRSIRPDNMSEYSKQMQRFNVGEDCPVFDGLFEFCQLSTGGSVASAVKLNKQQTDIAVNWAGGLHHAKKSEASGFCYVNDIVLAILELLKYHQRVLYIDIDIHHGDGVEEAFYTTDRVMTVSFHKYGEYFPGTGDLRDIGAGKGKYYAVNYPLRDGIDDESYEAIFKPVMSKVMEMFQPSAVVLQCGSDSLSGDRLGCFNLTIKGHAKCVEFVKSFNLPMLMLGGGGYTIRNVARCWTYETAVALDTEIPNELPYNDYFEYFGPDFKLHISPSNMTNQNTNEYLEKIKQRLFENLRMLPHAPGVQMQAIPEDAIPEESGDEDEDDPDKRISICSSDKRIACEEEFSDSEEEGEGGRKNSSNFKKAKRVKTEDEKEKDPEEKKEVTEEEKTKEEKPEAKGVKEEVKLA

HDAC5 = HDAC5 (Homo sapiens, UniProt Q9UQL6); assay: HDAC enzyme inhibition assay, purified HDAC5; assay type: biochemical
Chain of HDAC5 (Q9UQL6 whole entry): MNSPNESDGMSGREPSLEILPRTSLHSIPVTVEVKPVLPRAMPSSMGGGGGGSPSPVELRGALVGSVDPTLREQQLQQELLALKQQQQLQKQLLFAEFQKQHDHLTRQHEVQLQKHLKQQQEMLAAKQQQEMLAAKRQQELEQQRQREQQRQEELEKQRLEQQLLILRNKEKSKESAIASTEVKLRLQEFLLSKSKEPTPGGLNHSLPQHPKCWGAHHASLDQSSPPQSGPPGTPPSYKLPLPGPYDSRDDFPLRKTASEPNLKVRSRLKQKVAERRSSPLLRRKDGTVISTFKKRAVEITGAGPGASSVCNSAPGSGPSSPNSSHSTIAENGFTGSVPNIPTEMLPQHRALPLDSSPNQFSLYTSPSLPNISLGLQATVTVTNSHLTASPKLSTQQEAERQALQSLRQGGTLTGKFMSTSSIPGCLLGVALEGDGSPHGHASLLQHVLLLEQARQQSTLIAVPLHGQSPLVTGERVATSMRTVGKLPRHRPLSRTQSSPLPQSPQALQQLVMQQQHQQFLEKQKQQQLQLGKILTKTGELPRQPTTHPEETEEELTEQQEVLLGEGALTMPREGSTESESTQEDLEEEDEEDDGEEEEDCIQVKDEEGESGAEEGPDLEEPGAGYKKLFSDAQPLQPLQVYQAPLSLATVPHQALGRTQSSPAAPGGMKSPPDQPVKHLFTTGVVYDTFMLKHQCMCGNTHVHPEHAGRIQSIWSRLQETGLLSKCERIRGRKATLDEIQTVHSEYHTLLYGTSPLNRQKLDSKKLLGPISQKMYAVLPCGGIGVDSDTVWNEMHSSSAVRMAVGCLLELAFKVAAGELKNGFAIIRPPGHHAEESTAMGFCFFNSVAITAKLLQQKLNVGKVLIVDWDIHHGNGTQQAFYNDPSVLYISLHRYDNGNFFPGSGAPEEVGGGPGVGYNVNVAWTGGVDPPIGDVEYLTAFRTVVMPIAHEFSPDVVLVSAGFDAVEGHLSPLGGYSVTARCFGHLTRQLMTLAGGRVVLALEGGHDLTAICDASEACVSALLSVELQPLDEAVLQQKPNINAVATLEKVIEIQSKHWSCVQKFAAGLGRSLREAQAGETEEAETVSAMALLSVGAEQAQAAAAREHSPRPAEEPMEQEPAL

HDAC2 = HDAC2 (Homo sapiens, UniProt Q92769); assay: HDAC enzyme inhibition assay, purified HDAC2; assay type: biochemical
Chain of HDAC2 (Q92769 whole entry): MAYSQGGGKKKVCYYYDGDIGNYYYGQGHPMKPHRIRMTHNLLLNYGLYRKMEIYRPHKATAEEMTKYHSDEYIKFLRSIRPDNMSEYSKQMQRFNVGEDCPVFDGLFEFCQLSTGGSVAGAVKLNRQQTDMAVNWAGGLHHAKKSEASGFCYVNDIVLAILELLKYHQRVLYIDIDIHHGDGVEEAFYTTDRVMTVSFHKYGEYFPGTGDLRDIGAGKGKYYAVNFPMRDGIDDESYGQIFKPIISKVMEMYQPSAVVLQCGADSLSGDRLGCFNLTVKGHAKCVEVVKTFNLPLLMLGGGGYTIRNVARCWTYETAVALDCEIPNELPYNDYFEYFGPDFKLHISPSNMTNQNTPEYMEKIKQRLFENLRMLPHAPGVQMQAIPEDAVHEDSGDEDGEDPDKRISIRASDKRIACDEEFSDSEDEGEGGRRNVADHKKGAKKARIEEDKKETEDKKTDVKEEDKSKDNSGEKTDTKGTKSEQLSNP

HepG2 cells = assay: Growth inhibition of HepG2 cells (CellTiter 96 AQueous One Solution); assay type: cell-based, human; conditions: for cytotoxicity, result in words / IC50: HepG2 cells; for HepG2/HDAC3 (estimated therapeutic index): HepG2 growth IC50 divided by IC50 for HDAC3; for IC50: Homo sapiens, 72 hours
frataxin (FXN1) mRNA = assay: Frataxin mRNA expression in lymphocytes by quantitative RT-PCR; conditions: for frataxin mRNA expression, result in words / Fold Increase FXN1 Expr. (10 μM): 10 μM; for frataxin mRNA expression, result in words: human lymphocytes; for Fold Increase FXN1 Expr. (10 μM): human lymphocytes of normal donors, vs vehicle control
HDACs 1-10 = assay: Panel of individual purified HDAC enzymes (HDACs 1-10); assay type: biochemical, human

SMILES	HDAC3 inhibition, result in words (HDAC3)	Relative Inhibitory Activity HDAC 1/3 (HDAC3)	Relative Inhibitory Activity HDAC 2/3 (HDAC3)	Relative Inhibitory Activity HDAC 5/3 (HDAC3)	IC50 (HDAC3)	IC50 (HDAC1)	IC50 (HDAC5)	IC50 (HDAC2)	IC50 (HepG2 cells)	inhibition of all HDACs tested, result in words (HDACs 1-10)	cytotoxicity, result in words (HepG2 cells)	HepG2/HDAC3 (estimated therapeutic index) (HepG2 cells)	frataxin mRNA expression, result in words (frataxin (FXN1) mRNA)	Fold Increase FXN1 Expr. (10 μM) (frataxin (FXN1) mRNA)	maximum observed increase of frataxin expression (frataxin (FXN1) mRNA; 1-30 μM, normal lymphocytes, compared to vehicle control (FIG. 1))	frataxin expression, result in words (frataxin (FXN1) mRNA; normal lymphocytes or patient lymphocytes, all concentrations tested (1-30 μM))
Cc1ccc(NC(=O)CCCCCC(=O)N2CCN(c3ccccc3)CC2)cc1 [Compound 6]	did not show strong inhibition of HDAC3	0.45	0.65	2.0	9.1 µM	4.2 µM	18.2 µM	5.9 µM	112 µM			12.3	not active to increase frataxin expression	none		
Cc1ccc(NC(=O)CCCCCC(=O)Nc2ccccc2N)cc1 [RGFA8, N^1-(2-aminophenyl)-N^7-p-tolylheptanediamide]															about 16 fold	increased expression of frataxin
Nc1ccccc1NC(=O)c1ccc(CNC(=O)OCc2cccnc2)cc1 [MS-275, reference compound]											may be too cytotoxic for long-term use		did appreciably increase frataxin mRNA expression			

Now from value to compound, other results behind:

HDAC3 inhibition, result in words (HDAC3)	Relative Inhibitory Activity HDAC 1/3 (HDAC3)	Relative Inhibitory Activity HDAC 2/3 (HDAC3)	Relative Inhibitory Activity HDAC 5/3 (HDAC3)	IC50 (HDAC3)	IC50 (HDAC1)	IC50 (HDAC5)	IC50 (HDAC2)	IC50 (HepG2 cells)	inhibition of all HDACs tested, result in words (HDACs 1-10)	SMILES	cytotoxicity, result in words (HepG2 cells)	HepG2/HDAC3 (estimated therapeutic index) (HepG2 cells)	frataxin mRNA expression, result in words (frataxin (FXN1) mRNA)	Fold Increase FXN1 Expr. (10 μM) (frataxin (FXN1) mRNA)	maximum observed increase of frataxin expression (frataxin (FXN1) mRNA; 1-30 μM, normal lymphocytes, compared to vehicle control (FIG. 1))	frataxin expression, result in words (frataxin (FXN1) mRNA; normal lymphocytes or patient lymphocytes, all concentrations tested (1-30 μM))
strong HDAC3 inhibitory activity	3.7	9.1	5.1	0.32 µM	1.19 µM	1.63 µM	2.92 µM	10 µM		Cc1ccc(NC(=O)CCCCCC(=O)NO)cc1 [Compound 21]	relatively low cytotoxicity	31	effective to increase frataxin expression	2.0 Fold		
									Sub-micromolar inhibition	CC(/C=C/C(=O)NO)=C\[C@@H](C)C(=O)c1ccc(N(C)C)cc1 [TSA, trichostatin A]						
